{"source": "patent US5932466A", "about": "“Creatine amidinohydrolase gene, a novel recombinant DNA, and a process for producing creatine amidinohydrolase” (Kikkoman Corporation, priority 1994, dated 1999)", "test_system": "Alcaligenes sp. KS-85 creatine amidinohydrolase, SEQ ID NO: 2 (recombinant, produced in E. coli)", "experiment": "Km determination of creatine amidinohydrolase from Lineweaver-Burk plots", "assay_type": "biochemical", "conditions": "urea formed quantified, 50 mM phosphate buffer pH 7.7, 37° C.", "description": "The measurement of enzyme activity was conducted under the following conditions. 1 U of enzyme activity is defined as the amount which causes formation of 1 μmol of urea per minute.\n6.63 g of creatine is dissolved in 500 ml of 50 mM phosphate buffer, pH 7.7.\n10 g of .rho.-dimethylaminobenzaldehyde is dissolved in 500 ml ethanol (guaranteed reagent) and then mixed with a mixture of 575 ml deionized water and 75 ml conc. hydrochloric acid.\n1) 0.9 ml of Solution 1 is pre-incubated as the substrate at 37° C. for 5 minutes.\n2) 0.1 ml enzyme solution (adjusted to about 1-2 U/ml) is mixed with the substrate and allowed to react at 37° C. for 10 minutes.\n3) Then, 2 ml of Solution 2 is mixed with the reaction solution.\n4) Then, the mixture is allowed to stand at 25° C. for 20 minutes, and the absorbance at 435 nm is determined (OD sample).\n5) As the blank, 0.9 ml of Solution 1 is incubated at 37° C. for 10 minutes and then 2 ml of Solution 2 and 0.1 ml enzyme solution are mixed with Solution 1, and the mixture is allowed to stand at 25° C. for 20 minutes, and the absorbance at 435 nm is determined (OD blank).\nU/ml=ΔOD×18.06*×dilution degree", "data": [{"smiles": "CN(CC(=O)O)C(=N)N", "note": "[creatine]", "values": [{"measurement": "Km", "value": 13, "unit": "mM"}]}]}
